# Experimental data: patent US20240092819A1, “NOVEL LIGANDS FOR ASIALOGLYCOPROTEIN RECEPTOR” (SANOFI, priority 2020, published 2024)
# Counter-ions that a name gives are not always drawn.
# Target: ASGPR (Rattus norvegicus (Rat), UniProt P02706+P08290)
# Experiment: Fluorescent polarization (FP) ASGPR binding assay
# Conditions: Table K, monomeric compounds; competition with 1 nM Cy5-labeled trimeric GalNAc tracer; Wistar rat liver membrane
# Text: Fluorescent Polarization (FP) ASGPR Binding Assay to Determine the Binding Affinities of ASGPR-Targeted Small Molecules:
# The technique of fluorescence polarization (FP) is based on the observation that when a fluorescently labeled molecule is excited by polarized light, it emits light with a degree of polarization that is inversely proportional to the rate of molecular rotation. This property of fluorescence can be used to measure the interaction of a small labeled ligand with a larger protein and provides a basis for direct and competition binding assays.
# The assay was performed in 384-well microplates (GREINER bio-one, 781076). Membrane prepared from Wistar rat liver was used as a source of ASGPR and Cy5 fluorophore-labeled trimeric GauNAc-tool compound was used as a tracer.
# In the FP binding experiments, 15 μltest sample was mixed with 15 μl of […] liver membrane. After 10 minutes incubation at room temperature, 10 μl of the Cy5-labeled trimeric GalNAc-tool compound (final concentration: 1 nM) were added. The FP signals were recorded after 30 minutes incubation at room temperature at Ex. 612 nm/Em. 670 with PheraStar FXS (BMG Biotech). The optimal FP buffer was 50 mM Tris, pH 7.4; 3 mM CaCl2; 0.04% Triton X100; 0,05% BSA.
# Sequence of ASGPR (P02706 whole entry): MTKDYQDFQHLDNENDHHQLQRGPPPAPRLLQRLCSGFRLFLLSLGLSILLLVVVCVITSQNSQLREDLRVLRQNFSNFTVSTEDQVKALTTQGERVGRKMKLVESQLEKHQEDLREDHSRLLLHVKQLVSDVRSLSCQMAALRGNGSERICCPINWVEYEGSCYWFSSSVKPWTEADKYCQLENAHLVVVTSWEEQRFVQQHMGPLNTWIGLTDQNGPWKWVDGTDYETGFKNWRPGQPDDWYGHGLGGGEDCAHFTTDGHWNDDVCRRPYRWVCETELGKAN
# Sequence of ASGPR (P08290 whole entry): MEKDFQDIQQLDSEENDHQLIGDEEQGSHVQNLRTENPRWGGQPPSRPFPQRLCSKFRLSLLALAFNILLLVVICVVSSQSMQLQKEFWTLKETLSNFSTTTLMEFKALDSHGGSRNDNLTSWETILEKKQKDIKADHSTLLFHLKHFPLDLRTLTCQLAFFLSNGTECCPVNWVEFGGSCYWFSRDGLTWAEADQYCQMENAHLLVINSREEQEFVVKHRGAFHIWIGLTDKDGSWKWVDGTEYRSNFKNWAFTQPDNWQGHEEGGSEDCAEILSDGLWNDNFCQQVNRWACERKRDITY
row,SMILES,IC50
1,"CC(=O)N[C@H]1CN(C(=O)CCCCC(=O)OCc2ccccc2)C[C@H](O)[C@@H]1O [Compound 112, benzyl 6-[(3S,4R,5S)-3-acetamido-4,5-dihydroxy-1-piperidyl]-6-oxo-hexanoate]",344 µM
2,"CC(=O)N[C@H]1C(O)O[C@H](CO)[C@H](O)[C@@H]1O (stereo partly drawn) [Compound 193, N-[(3R,4R,5R,6R)-2,4,5-trihydroxy-6-(hydroxymethyl)-tetrahydropyran-3-yl]acetamide, reference compound]",545 µM
3,"CCCCNC(=O)C[C@H]1O[C@@H](n2cnc3c(=O)[nH]c(N)nc32)[C@H](O)[C@@H]1O [Compound 73, 2-[(2R,3S,4R,5R)-5-(2-Amino-6-oxo-1H-purin-9-yl)-3,4-dihydroxy-tetrahydrofuran-2-yl]-N-butyl-acetamide]",1920 µM
4,"O=C(CCCCCOCc1ccccc1)N1C[C@H](O)[C@H](O)[C@@H](n2cc(COc3ccccc3)nn2)C1 [Compound 131, 6-benzyloxy-1-[(3S,4R,5S)-3,4-dihydroxy-5-[4-(phenoxy-methyl)triazol-1-yl]-1-piperidyl]hexan-1-one]",1770 µM
5,"CC(=O)N[C@H]1CN[C@H](COC(=O)CCCCC(=O)OCc2ccccc2)[C@H](O)[C@@H]1O [Compound 161, 06-[[(2R,3S,4R,5S)-5-acetamido-3,4-dihydroxy-2-piperidyl]methyl] 01-benzyl hexanedioate]",161 µM
6,"CCC[C@@H]1[C@H](O)[C@H](O)[C@@H](NC(C)=O)CN1C(=O)CCCCC(=O)O [Compound 148, 6-[(2R,3S,4R,5S)-5-acetamido-3,4-dihydroxy-2-propyl-1-piperidyl]-6-oxo-hexanoic acid]",370 µM
7,"O=C1[C@H](O)[C@H](O)[C@@H](n2cc(COc3ccccc3)nn2)CN1CCCCCCOCc1ccccc1 [Compound 140, (3R,4R,5S)-1-(6-benzyloxyhexyl)-3,4-dihydroxy-5-[4-(phenoxymethyl)triazol-1-yl]piperidin-2-one]",658 µM
8,"CC(=O)N[C@H]1CN(C(=O)CCCCCOCc2ccccc2)C[C@H](O)[C@@H]1O [Compound 128, N-[(3S,4R,5S)-1-(6-benzyloxyhexanoyl)-4,5-dihydroxy-3-piperidyl]acetamide]",451 µM
9,"CC(C)C(=O)Nc1nc2c(ncn2[C@@H]2O[C@H](CO)[C@@H](O)[C@H]2O)c(=O)[nH]1 [Compound 219, N-Isobuturylguanosine]",129 µM
10,"CC(=O)N[C@H]1CN(C(=O)CCCCC(=O)OCc2ccccc2)[C@@H](CO)[C@H](O)[C@@H]1O [Compound 162, benzyl 6-[(2S,3S,4R,5S)-5-acetamido-3,4-dihydroxy-2-(hydroxymethyl)-1-piperidyl]-6-oxo-hexanoate]",576 µM
11,"CCC[C@@H]1[C@H](O)[C@H](O)[C@@H](NC(C)=O)CN1C(=O)CCCCC(=O)OCc1ccccc1 [Compound 146, benzyl 6-[(2R,3S,4R,5S)-5-acetamido-3,4-dihydroxy-2-propyl-1-piperidyl]-6-oxo-hexanoate]",488 µM
12,"CC(=O)N[C@H]1CN(C(=O)CCCCC(=O)OCc2ccccc2)[C@H](COC(C)(C)C)[C@H](O)[C@@H]1O [Compound 160, benzyl 6-[(2R,3S,4R,5S)-5-acetamido-2-(tert-butoxymethyl)-3,4-dihydroxy-1-piperidyl]-6-oxo-hexanoate]",1050 µM
13,"CN(C)C(=O)C[C@H]1O[C@@H](n2cnc3c(=O)[nH]c(N)nc32)[C@H](O)[C@@H]1O [Compound 72, 2-[(2R,3S,4R,5R)-5-(2-Amino-6-oxo-1H-purin-9-yl)-3,4-dihydroxytetrahydrofuran-2-yl]-N,N-dimethyl-acetamide]",89 µM
14,"CC(=O)N[C@H]1CN(C(=O)OCc2ccccc2)C[C@H](O)[C@@H]1O [Compound 121, benzyl (3S,4R,5S)-3-acetamido-4,5-dihydroxy-piperidine-1-carboxylate]",563 µM
15,"CC(=O)N[C@H]1CN(CCCCCCOCc2ccccc2)[C@H](CO)[C@H](O)[C@@H]1O [Compound 180, N-[(3S,4R,5S,6R)-1-(6-benzyloxyhexyl)-4,5-dihydroxy-6-(hydroxymethyl)-3-piperidyl]acetamide]",628 µM
16,"CN(C)c1nc2c(ncn2[C@@H]2O[C@H](CO)[C@@H](O)[C@H]2O)c(=O)[nH]1 [Compound 198, 9-[(2R,3R,4S,5R)-3,4-dihydroxy-5-(hydroxymethyl)-tetrahydro-furan-2-yl]-2-(dimethylamino)-1H-purin-6-one]",1940 µM
17,"CC(=O)N[C@H]1CN(C(=O)CCCCCO)C[C@H](O)[C@@H]1O [Compound 129, N-[(3S,4R,5S)-4,5-dihydroxy-1-(6-hydroxyhexanoyl)-3-piperidyl]acetamide]",585 µM
18,"CNC(=O)C[C@H]1O[C@@H](n2cnc3c(=O)[nH]c(N)nc32)[C@H](O)[C@@H]1O [Compound 71, 2-[(2R,3S,4R,5R)-5-(2-Amino-6-oxo-1H-purin-9-yl)-3,4-dihydroxy-tetrahydrofuran-2-yl]-N-methyl-acetamide]",605 µM
19,"Nc1nc2c(ncn2[C@@H]2O[C@H](CO)[C@@H](O)[C@H]2O)c(=O)[nH]1 [Compound 194, 2-amino-9-[(2R,3R,4S,5R)-3,4-dihydroxy-5-(hydroxymethyl)-tetrahydrofuran-2-yl]-1H-purin-6-one]",513 µM

# Same assay, conditions: Table L, targeted nucleosides; competition with 1 nM Cy5-labeled trimeric GalNAc tracer; Wistar rat liver membrane
row,SMILES,IC50
1,"Cc1cn([C@H]2CN(CCOCCOCCOC[C@H]3O[C@@H](n4cnc5c(=O)[nH]c(N)nc54)[C@H](O)[C@@H]3O)CC(CO)(CO)O2)c(=O)[nH]c1=O [Compound 254, 1-[(2R)-4-[2-[2-[2-[[(2R,3S,4R,5R)-5-(2-Amino-6-oxo-1H-purin-9-yl)-3,4-dihydroxy-tetrahydrofuran-2-yl]methoxy]ethoxy]ethoxy]ethyl]-6,6-bis-(hydroxymethyl)-morpholin-2-yl]-5-methyl-pyrimidine-2,4-dione]",1240 µM
2,"Cc1cn([C@H]2CN(CCOCCOCCOP(=O)(O)OC[C@H]3O[C@@H](n4cnc5c(=O)[nH]c(N)nc54)[C@H](O)[C@@H]3O)CC(CO)(CO)O2)c(=O)[nH]c1=O [Compound 258, [(2R,3S,4R,5R)-5-(2-Amino-6-oxo-1H-purin-9-yl)-3,4-di-hydroxy-tetrahydrofuran-2-yl]methyl 2-[2-[2-[(6R)-2,2-bis(hydroxymethyl)-6-(5-methyl-2,4-dioxo-pyrimidin-1-yl)morpholin-4-yl]ethoxy]ethoxy]ethyl hydrogen phosphate-sodium salt]",1850 µM

# Same assay, conditions: Table M, trimeric compounds; competition with 1 nM Cy5-labeled trimeric GalNAc tracer; Wistar rat liver membrane
row,SMILES,IC50
1,"CC(=O)N[C@H]1CN(C(=O)CCCCC(=O)NCCCNC(=O)CCOCC(COCCC(=O)NCCCNC(=O)CCCCC(=O)N2C[C@H](NC(C)=O)[C@@H](O)[C@@H](O)C2)(COCCC(=O)NCCCNC(=O)CCCCC(=O)N2C[C@H](NC(C)=O)[C@@H](O)[C@@H](O)C2)NC(=O)CCCCCCCCCCCOCc2ccccc2)C[C@H](O)[C@@H]1O [Compound 267, N,N′,N′-((3S,3′S,3″S,4R,4′R,4″R,5S,5′S,5″S)-(17-(12-(benzyloxy)dodecanamido)-6,12,22,28-tetraoxo-17-((3-oxo-3-((3-(6-oxopentanamido)propyl)amino)propoxy)methyl)-15,19-dioxa-7,11,23,27-tetraazatritriacontanedioyl)tris(4,5-dihydroxypiperidine-1,3-diyl))triacetamide]",0.563 µM
2,"CC(=O)N[C@H]1CN(C(=O)CCC(=O)NCCCNC(=O)CCOCC(COCCC(=O)NCCCNC(=O)CCC(=O)N2C[C@H](NC(C)=O)[C@@H](O)[C@@H](O)C2)(COCCC(=O)NCCCNC(=O)CCC(=O)N2C[C@H](NC(C)=O)[C@@H](O)[C@@H](O)C2)NC(=O)CCCCCCCCCCCOCc2ccccc2)C[C@H](O)[C@@H]1O [Compound 269, N,N′,N′-((3S,3′S,3″S,4R,4′R,4″R,5S,5′S,5″S)-(15-(12-(benzyloxy)dodecanamido)-4,10,20,26-tetraoxo-15-((3-oxo-3-((3-(4-oxobutanamido)propyl)amino)pro-poxy)methyl)-13,17-dioxa-5,9,21,25-tetraazanonacosanedioyl)tris(4,5-dihydroxypiperidine-1,3-diyl))triacetamide]",0.598 µM
3,"CC(=O)NC1CN(C(=O)CCCC(=O)NCCCNC(=O)CCOCC(COCCC(=O)NCCCNC(=O)CCCC(=O)N2C[C@H](NC(C)=O)[C@@H](O)[C@@H](O)C2)(COCCC(=O)NCCCNC(=O)CCCC(=O)N2C[C@H](NC(C)=O)[C@@H](O)[C@@H](O)C2)NC(=O)CCCCCCCCCCCOCc2ccccc2)C[C@H](O)[C@@H]1O (stereo partly drawn) [Compound 268, N,N′,N′-((3S,3′S,3″S,4R,4′R,4″R,5S,5′S,5″S)-(16-(12-(benzyloxy)dodecanamido)-5,11,21,27-tetraoxo-16-((3-oxo-3-((3-(5-oxopentanamido)propyl)amino)propoxy)methyl)-14,18-dioxa-6,10,22,26-tetraazahentriacontanedioyl)tris(4,5-dihydroxy-piperidine-1,3-diyl))triacetamide]",0.335 µM
